This data set in a line: Solubility of the crystalline compounds in aqueous media. Type of data set: physicochemical.

Like-named read-outs stand apart in the source and are kept apart here.

The source of these data is patent publication US8852634B2, “Dosage formulation” (Hoffmann-La Roche Inc., priority 2005, dated 2014).

The term solubility denotes the concentration that dissolves in the medium under given conditions.

Regarding `Cc1ccccc1-c1cc(N2CCOCC2)ncc1N(C)C(=O)C(C)(C)c1cc(C(F)(F)F)cc(C(F)(F)F)c1` [2-(3,5-bis-trifluoromethyl-phenyl)-N-methyl-N-(6-morpholin-4-yl-4-o-tolyl-pyridin-3-yl)-isobutyramide], the solubility by setting is: (aqueous buffer solutions of pH 3.0-7.0, read-out: solubility in aqueous buffer solutions) < 0.1 µg/mL; (water, 'above noted insolubilities', read-out: solubility in water) < 0.1 µg/mL.
